Test results as given in patent US20260209171A1, “CATIONIC LIPIDS AND MANUFACTURING METHOD THEREFOR” (SAMYANG HOLDINGS CORPORATION, priority 2022, published 2026).

Tests used:
[1] = Particle characteristics of the prepared formulation by particle size analyzer (Dynamic Light Scattering, DLS); type: physicochemical; settings: mRNA formulation, compound:DOPE:Cholesterol:DMG-PEG=50:10:38.5:1.5, N/P ratio 6; for PDI (PI) / Z-average: DLS
Protocol: (§1) According to the following table 1, the materials required for preparing the formulation were dissolved in each dilution solvent and prepared at the required concentration. When dissolving, the materials were kept at room temperature and then the solvent was added to dissolve them.
(§2) The required amounts of the raw materials were mixed in order to meet the N/P ratio (amine group of lipid/phosphate group of mRNA) of 6 and each compound of formulas A to G:DOPE:Cholesterol:DMG-PEG=50:10:38.5:1.5. Ethanol was added to the ethanol layer so that the molecular total of all raw materials was within 12.5 mM, and the aqueous phase and ethanol phase were mixed maintaining a volume ratio of 3:1. After the mixing, to reduce the total ethanol content, buffer exchange was performed as follows: The mixture solution was concentrated by centrifugation at 4,000 rpm using an Amicon-Ultra tube filter (Merk Millipore, UFC505096 or UFC805024, pore size: 50K, volume: 15 mL), then diluted with PBS and centrifuged to concentrate. This process was repeated to exchange the buffer.
(§3) The more concrete procedure is as follows: • 1) Two autoclaved tubes were prepared (tubes (A) and (B)). • 2) In tube (A), each compound of formulas A to G, DOPE, cholesterol and DMG-PEG in molar quantities calculated according to the experimental conditions were sequentially added and mixed by vortexing. • 3) In the ethanol phase, when necessary, ethanol was added so that the molecular total of all raw materials was within 12.5 mM. • 4) In tube (B), mRNA and 20 mM sodium acetate buffer (pH 4.6) were mixed. At that time, the ratio was calculated and added so that the aqueous phase was total three times the amount of the ethanol phase. • 5) Mixing of Tube (A) and Tube (B) was performed using a Microfluidics (Ignite, Precision Nanosystem) device. Microfluidics operating conditions were FRR (Flow Rate Ratio) of C:R=3:1 and […] (Total Flow Rate) of 12 mL/min. • 6) The resulting mixture from step 5) was centrifuged at 4,000 rpm using an Amicon-Ultra tube filter (50K), and the process of concentration and dilution was repeated to remove excess ethanol, and then concentrated to a final x mg/ml (theoretical concentration).
(§4) • 1) For the prepared formulation, particle characteristics were confirmed using a particle size analyzer (Dynamic Light Scattering, DLS), and the results are shown in Table 2 below. • 2) For the prepared formulation, mRNA encapsulation efficiency was confirmed through Ribo-green assay, and the results are shown in Table 1 below.

[2] = mRNA encapsulation efficiency by Ribo-green assay; type: physicochemical; settings: mRNA formulation, compound:DOPE:Cholesterol:DMG-PEG=50:10:38.5:1.5, N/P ratio 6
Protocol: as §1, §2, §3, §4

Zeta-potential [1] [mV] | PDI (PI) [1] | Z-average [1] [nm] | Encapsulation efficiency [2] [%] | SMILES
−10.96 ± 2.69 | 0.09 ± 0.01 | 135.0 ± 0.46 |  | CCCCCCCCC(OC(=O)CCCCCCCN(C)CCCCCCCC(=O)OC(CCCCCCCC)C1CC1)C1CC1 (centres unmarked) [Formula A]
−4.30 ± 3.03 | 0.12 ± 0.03 | 183.3 ± 2.86 |  | CCCCCCC(OC(=O)CCCCCN(C)CCCCCC(=O)OC(CCCCCC)C1CC1)C1CC1 (centres unmarked) [Formula B]
−7.57 ± 4.12 | 0.12 ± 0.00 | 120.0 ± 2.38 | 95.4 ± 0.2 | CCCCCCCCCCC(OC(=O)CCCCCCCN(C)CCCCCCCC(=O)OC(CCCCCCCCCC)C1CC1)C1CC1 (centres unmarked) [Formula C]
−2.37 ± 0.39 | 0.07 ± 0.04 | 154.6 ± 2.75 | 97.6 ± 0.2 | CCCCCCCCC(OC(=O)CCCCCCCN(C)CCCCCCCC(=O)OC(CCCCCCCC)C1CCCCC1)C1CCCCC1 (centres unmarked) [Formula D]
−4.69 ± 1.56 | 0.10 ± 0.04 | 127.4 ± 0.52 | 98.4 ± 0.5 | CCCCCCCCC(OC(=O)CCCCCCCN(CCO)CCCCCCCC(=O)OC(CCCCCCCC)C1CC1)C1CC1 (centres unmarked) [Formula E]
−6.24 ± 3.13 | 0.12 ± 0.02 | 131.5 ± 0.12 | 91.1 ± 0.2 | CCCCCCCCC(C(=O)OCCCCCCCN(C)CCCCCCCOC(=O)C(CCCCCCCC)C1CC1)C1CC1 (centres unmarked) [Formula F]
−6.93 ± 1.48 | 0.17 ± 0.02 | 194.9 ± 3.59 | 92.1 ± 0.1 | CCCCCCC(OC(=O)CCCCCCCN(C)CCCCCCCC(=O)OC(CCCCCC)C1CC1)C1CC1 (centres unmarked) [Formula G]
